Laboratory results taken from PubChem BioAssay (NCI).
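All cell lines were grown in 96-well plates and treated with compound for 48 hours. TGI marks complete inhibition of growth.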 Where a SMILES comes first, the peptide text is derived from it. [ ]: non-standard residue; d: D form. The star is where a group is joined. Phe(4-NO2) = N[CH](Cc1ccc([N+](=O)[O-])cc1)C(=O)O; Cbz = O=C(OCc1ccccc1)*

Columns and labels:
Test in all cases: growth of human tumour cells (NCI), 48 h
[1] = system: CAKI-1 renal
[2] = system: NCI-H522 lung
[3] = system: SNB-75 CNS
[4] = system: HCT-116 colon
[5] = system: HL-60(TB) leukemia
[6] = system: UACC-257 melanoma
[7] = system: MDA-MB-435
[8] = system: HOP-92 NSCLC
[9] = system: OVCAR-4 ovarian
[10] = system: NCI-H460 lung
[11] = system: 786-0 renal
[12] = system: ACHN renal
[13] = system: SR leukemia
[14] = system: CCRF-CEM leukemia
[15] = system: SK-MEL-2 melanoma

COC(=O)/C=C1/OC(c2ccccc2)=C(Br)C1=O
TGI [1]: 51.3 µM
TGI [2]: 62.2 µM
TGI [3]: > 100 µM
TGI [4]: > 100 µM
TGI [5]: > 100 µM
TGI [6]: > 100 µM
TGI [7]: > 100 µM
TGI [8]: > 100 µM
TGI [9]: > 100 µM
TGI [10]: > 100 µM
TGI [11]: 81.6 µM
TGI [12]: > 100 µM
TGI [13]: > 100 µM
TGI [14]: > 100 µM

COc1ccc(-n2c(C)nc3ccc(NC4OCC(OC(C)=O)C(OC(C)=O)C4OC(C)=O)cc3c2=O)cc1 (configuration not stated)
TGI [1]: > 100 µM
TGI [2]: > 100 µM
TGI [3]: > 100 µM
TGI [4]: > 100 µM
TGI [5]: > 100 µM
TGI [6]: > 100 µM
TGI [7]: > 100 µM
TGI [9]: > 100 µM
TGI [10]: > 100 µM
TGI [11]: > 100 µM
TGI [12]: > 100 µM
TGI [13]: > 100 µM
TGI [15]: > 100 µM

O=C(O)CNc1ncc2c(n1)-c1ccccc1OC2
TGI [1]: > 100 µM
TGI [3]: > 100 µM
TGI [4]: > 100 µM
TGI [5]: > 100 µM
TGI [6]: > 100 µM
TGI [7]: > 100 µM
TGI [8]: > 100 µM
TGI [9]: > 100 µM
TGI [10]: > 100 µM
TGI [11]: > 100 µM
TGI [12]: > 100 µM
TGI [13]: > 100 µM
TGI [15]: > 100 µM
TGI [14]: > 100 µM

O=C(NC1C(=O)NC(CCc2ccccc2)NC1=O)OCc1ccccc1 (configuration not stated)
TGI [1]: > 100 µM
TGI [2]: > 100 µM
TGI [3]: > 100 µM
TGI [4]: > 100 µM
TGI [5]: > 100 µM
TGI [6]: > 100 µM
TGI [7]: > 100 µM
TGI [8]: > 100 µM
TGI [9]: > 100 µM
TGI [10]: > 100 µM
TGI [11]: > 100 µM
TGI [12]: > 100 µM
TGI [13]: > 100 µM
TGI [14]: > 100 µM

CC(Oc1ccc(Cl)cc1Cl)C(=O)NN1C(=O)CC(=O)NC1=S (configuration not stated)
TGI [1]: > 100 µM
TGI [2]: > 100 µM
TGI [3]: > 100 µM
TGI [4]: > 100 µM
TGI [5]: 91.8 µM
TGI [6]: > 100 µM
TGI [7]: > 100 µM
TGI [8]: > 100 µM
TGI [9]: > 100 µM
TGI [10]: > 100 µM
TGI [11]: > 100 µM
TGI [12]: > 100 µM
TGI [13]: > 100 µM
TGI [15]: > 100 µM

Clc1nc(NC23CC4CC(CC(C4)C2)C3)nc(NC23CC4CC(CC(C4)C2)C3)n1
TGI [1]: > 100 µM
TGI [3]: > 78 µM
TGI [4]: > 100 µM
TGI [5]: 87.5 µM
TGI [6]: > 100 µM
TGI [7]: > 100 µM
TGI [8]: > 100 µM
TGI [9]: > 100 µM
TGI [10]: > 100 µM
TGI [11]: > 100 µM
TGI [12]: > 100 µM
TGI [13]: > 100 µM
TGI [15]: 57.6 µM
TGI [14]: > 90.8 µM

COc1ccc(-c2c(C#N)c(N)nc(Sc3ccccc3N)c2C#N)cc1
TGI [1]: > 65.9 µM
TGI [2]: 62.5 µM
TGI [4]: > 100 µM
TGI [5]: > 100 µM
TGI [6]: > 100 µM
TGI [7]: > 100 µM
TGI [8]: 27.2 µM
TGI [9]: > 100 µM
TGI [10]: > 100 µM
TGI [11]: 32.3 µM
TGI [12]: 51.4 µM
TGI [13]: > 100 µM
TGI [15]: 39.7 µM
TGI [14]: > 100 µM

COC(=O)c1c(C)c2c(c(C)c1O)OC(=O)c1c(C)cc(O)c(C=O)c1O2
TGI [2]: > 100 µM
TGI [4]: > 100 µM
TGI [5]: > 100 µM
TGI [6]: > 100 µM
TGI [7]: > 100 µM
TGI [8]: > 100 µM
TGI [9]: > 100 µM
TGI [10]: > 100 µM
TGI [11]: > 100 µM
TGI [12]: > 100 µM
TGI [13]: > 100 µM
TGI [14]: > 100 µM

O=C(Cn1c(C(=O)/C=C/c2ccc(Cl)c(Cl)c2)nc2ccccc21)c1ccccc1
TGI [4]: 35.1 µM
TGI [5]: 36.7 µM
TGI [6]: > 100 µM
TGI [7]: 42.4 µM
TGI [8]: 96.1 µM
TGI [9]: 73.2 µM
TGI [10]: 39.4 µM
TGI [11]: 44 µM
TGI [12]: 93.5 µM
TGI [13]: 80 µM
TGI [15]: 47.1 µM
TGI [14]: 33.3 µM

COc1cccc(C2c3cc4c(cc3OC(N3CCCC3)C2c2ccccc2)OCO4)c1O (configuration not stated)
TGI [1]: 7 µM
TGI [2]: 58.4 µM
TGI [4]: 17.7 µM
TGI [6]: 24.4 µM
TGI [7]: 22.8 µM
TGI [10]: 33.7 µM
TGI [11]: 27.8 µM
TGI [12]: 25.8 µM
TGI [13]: 32.7 µM
TGI [15]: 27.9 µM
TGI [14]: 24.6 µM

C1=C(c2ccccc2)NC2=N[C@H]3CCCC[C@@H]3N2C1c1ccccc1 (some centres not stated)
TGI [1]: 29.6 µM
TGI [3]: 24.3 µM
TGI [4]: 20.2 µM
TGI [5]: 42.2 µM
TGI [6]: 27.7 µM
TGI [7]: 26.4 µM
TGI [8]: 25.2 µM
TGI [9]: 22.2 µM
TGI [10]: 25.3 µM
TGI [11]: 30.7 µM
TGI [12]: 26.6 µM
TGI [13]: 39.3 µM
TGI [15]: 32 µM
TGI [14]: 43.4 µM

CCOC(=O)CCC(NC(=O)OCc1ccccc1)C(=O)NC(CCC(=O)OCC)C(=O)NC(CCC(=O)OCC)C(=O)NC(CCC(=O)OCC)C(=O)NC(CCC(=O)OCC)C(=O)NC(Cc1ccc([N+](=O)[O-])cc1)C(=O)NC(CCC(=O)OCC)C(=O)NC(CCC(=O)OCC)C(=O)NC(CCC(=O)OCC)C(=O)NC(CCC(=O)OCC)C(=O)NC(CCC(=O)OCC)C(=O)OCC (configuration not stated) (Cbz-E(OEt)E(OEt)E(OEt)E(OEt)E(OEt)[Phe(4-NO2)]E(OEt)E(OEt)E(OEt)E(OEt)E(OEt)-OEt; configuration not given here)
TGI [2]: > 50 µM
TGI [3]: > 50 µM
TGI [5]: > 50 µM
TGI [7]: > 50 µM
TGI [9]: > 50 µM
TGI [10]: > 50 µM
TGI [11]: > 50 µM
TGI [12]: > 50 µM
TGI [13]: > 50 µM
TGI [15]: > 50 µM
TGI [14]: > 50 µM

NC(=S)N/N=C1\CCc2ccccc2C1
TGI [2]: > 100 µM
TGI [4]: > 100 µM
TGI [5]: > 100 µM
TGI [6]: > 100 µM
TGI [7]: > 100 µM
TGI [8]: > 100 µM
TGI [9]: > 100 µM
TGI [10]: > 100 µM
TGI [11]: > 100 µM
TGI [12]: > 100 µM
TGI [13]: > 100 µM
TGI [14]: > 100 µM

CN1CC[C@@]2(c3cccc(O)c3)CC(=O)/C(=C/c3ccc(Cl)c(Cl)c3)[C@H]1C2
TGI [3]: 2.63 µM
TGI [5]: 3.82 µM
TGI [6]: 12.6 µM
TGI [7]: 2.8 µM
TGI [8]: 18.1 µM
TGI [9]: 17.2 µM
TGI [10]: 4.72 µM
TGI [11]: 3.07 µM
TGI [12]: 3.38 µM
TGI [13]: 5.92 µM
TGI [14]: > 100 µM

CC(C)(C)C1CC[C@H](O)[C@H]([C@@H](O)CC2CC(=O)N(c3ccccc3)C(=O)C2)C1 (some centres not stated)
TGI [1]: > 100 µM
TGI [2]: > 100 µM
TGI [3]: > 100 µM
TGI [4]: > 100 µM
TGI [5]: 77.5 µM
TGI [6]: > 100 µM
TGI [7]: > 100 µM
TGI [8]: > 100 µM
TGI [9]: > 100 µM
TGI [10]: > 100 µM
TGI [11]: > 100 µM
TGI [12]: > 100 µM
TGI [13]: > 100 µM
TGI [14]: > 100 µM

COc1ccccc1NC(=S)Nc1ccccn1
TGI [1]: > 100 µM
TGI [2]: > 100 µM
TGI [3]: > 100 µM
TGI [4]: > 100 µM
TGI [5]: > 100 µM
TGI [6]: > 100 µM
TGI [7]: > 100 µM
TGI [9]: > 100 µM
TGI [10]: > 100 µM
TGI [11]: > 100 µM
TGI [13]: > 100 µM
TGI [15]: > 100 µM
TGI [14]: > 100 µM
